What is called MIC is the smallest concentration in the dilution series that meets the test's criterion for growth inhibition.

This is an account of results in article PMC10009108, “Design, synthesis and screening of indole acetic acid-based tri-azo moieties as antioxidants, anti-microbial and cytotoxic agents” (Frontiers in Pharmacology, 2023).

Data set [1] can be described thus: Total reducing power (TRP assay). The note with it: mean ± SD. On the procedure: The process used for TRP was illustrated by ([Bibi et al., 2011]). The […] method is used for 100 μL of each solution, 200 μL Phosphate buffer (0.2 M, pH 6.6), and 250 μL of potassium ferricyanide was mixed and incubated at 50°C for 20 min, to this solution, 10 percent (200 μL) trichloroacetic acid was added, centrifugation was done at 3,000 rpm for 10 min, the supernatant was collected, added with FeCl3 (50 μL), and shifted to the microplate. Absorbance was recorded at 700 nm. Ascorbic acid (100 μg/mL DMSO) is the +ve control for the test, and dimethyl sulfoxide (DMSO) is the blank.
The primary mechanism of TRP assay is based on the compound’s capacity to reduce free radicals, which are generated during the procedure. i.e., Fe^3+ is reduced to Fe^2+ ([Lee et al., 2015]). Various factors determine the antioxidant potential of the compound; a few to explain include the chemical attributes, nature of antioxidant moieties, conditions and mechanism of the reaction, which accounts for the reason for a compound’s activity in one assay and none-to-less response in the other ([Francenia Santos-Sanchez et al., 2019]). However, compounds with hydroxyl and methoxy groups form the bases for potential candidates as an antioxidant ([Rakesh et al., 2015]).

For data set [2], the system named is Bacillus subtilis (ATCC-6633). Kind of data set: Antibacterial assay, micro broth dilution. The data set is classed as cell-based. The arrangement: key to Antibacterial activity, Bacillus subtilis: Activity: Active = Bacterial activity; --- = no activity. The settings on record: 25 μg/mL. From the text: (§1) The micro broth dilution method was used to establish the antibacterial potential of test samples against Staphylococcus aureus (ATCC-6538), Bacillus subtilis (ATCC-6633), Escherichia coli (ATCC-25922), Klebsiella pneumoniae (ATCC-1705), and Pseudomonas aeruginosa (ATCC-15442) and for the resistant strains of MRSA Staphylococcus aureus, P. aeruginosa and Escherichia coli. The procedure used is described by ([Sarker et al., 2007]). Bacterial inoculum was formed under aseptic conditions keeping the density near 5 × 10^4 CFU/mL in pre-autoclaved nutrient broth. Test samples of an aliquot of 5 µL were shifted to labeled wells of 96 well plates, and after that addition of 195 µL of nutrient broth; was accomplished. After that, a 2-fold serial dilution of every sample was arranged to get final concentrations of 12.5 μg/mL. Then, with the help of a micropipette, 195 µL of bacterial culture of respective strains was poured into each well; further advancement was incubating of plates for 30 min at the temperature of 37°C. […] Incubation of plates was again carried out at 37°C for 1 day, absorbance was noted, and net change in turbidity was the difference between two values of absorbance.
(§2) Schiff base tri-azo compounds were investigated for antibacterial potential. […] 6.25 μg/mL for 5b and 5g, and the least, Table 4 3.12 μg/mL was for 5f. […] Substituents with electron-withdrawing attributes, e.g., -NO2, -Cl, -OH on the aromatic ring, assert a great impact on the antibacterial activity of synthetic compounds. It is also observed that an increase in the number of -OH groups tend to enhance the activity ([Hosamani and Shingalapur, 2011]). Due to the difference in cell-wall composition of Gram + ve and -ve bacteria, different compounds show different features towards the same micro-organism ([Goszczyn’ska et al., 2015]).

Data set [3] can be described thus: DPPH free radical scavenging assay. The note with it: at 50 μg/mL. On the procedure: The DPPH assay was executed via the technique stated by ([Bibi et al., 2011]). DPPH(Diphenyl-1-picrylhydrazyl), a free radical, is bagged to inquire about the antioxidant ability of the synthesized compounds. 10 μL from the synthesized compound (1 mg/mL DMSO) is added to 190 μL DPPH solution., making up the final conc. of 50 μg/mL.
DPPH assay was repeated in triplicate using DMSO as -ve and ascorbic acid as + ve control; findings are expressed as means standard deviation.
It is one of the very commonly utilized methods for the assessment of the antioxidant ability of compounds. DPPH turns from purple to yellow, which indicates the synthetic compound’s scavenging potential ([Rahman et al., 2017]). DMSO and A.A. were used as -ve and +ve control. The antioxidant potential of compounds was assessed at 50 μg/mL, 25 μg/mL, 12.5 μg/mL, and 6.25 μg/mL. […] Production of free radicals is an outcome of regular oxygen consumption in the body; whenever something is missing with the natural antioxidant mechanism, the accumulation of these free radicals may lead to cytotoxic interaction with the body systems and may cause damage to genomic content of various cells, and proteins in the body ([Barbuceanu et al., 2014]). Free radical accumulation is also associated with different diseases, e.g., coronary heart disease, neuronic disorders, diabetes, necrosis, and various tumors ([Ismaili.et al., 2008]). The antioxidant potential of the compound depends upon its reducing power; the introduction of hydroxy and methoxy groups on the Benzene ring led to better reducing power or promising antioxidant activity ([Rakesh et al., 2015]).
In general terms: The DPPH test is a chemical assay of radical scavenging.

For data set [4], the system named is Pseudomonas aeruginosa (ATCC-15442). Put plainly: Antibacterial assay, micro broth dilution. It is filed as cell-based. The note with it: ATCC15442.
From the text: as §1, §2
For orientation: Broth dilution looks for growth in wells or tubes with falling amounts of substance.

Data set [5] is described as follows: Total antioxidant capacity (TAC assay). The settings on record: rank among the synthetic compounds. As to the method:
This evaluation was based on the protocol by ([Bibi et al., 2011]). This mechanism’s key point is reducing Mo (VI) to Mo (V). A solution consisting of 4 mM Ammonium molybdate, 28 mM SodiumPhosphate, and 0.6 M Sulphuric acid is utilized, which forms Phosphate Molybdenum Complex which is green in color and gives absorption = […]. […] of the sample is added to […] of reagent, which is incubated at 95°C for one and a half hours and cooled to 25°C.
The antioxidant potential of test compounds was estimated by TAC &TRP assays. The spectrophotometric method was used to analyze the formation of the green-colored phosphomolibdenum compound. […] The findings are depicted in Figure 6.

Data set [6] deals with Escherichia coli (ATCC-25922). Put plainly: Antibacterial assay, micro broth dilution. It is filed as cell-based. The settings on record: ATCC25922, read-out: E. coli MIC.
From the text: as §1, §2

For data set [7], the system named is Staphylococcus aureus (ATCC-6538). Put plainly: Antibacterial assay, micro broth dilution. It is filed as cell-based. The note with it: ATCC6538, read-out: S. aureus MIC.
From the text: as §1, §2

Converted amounts (≈) assume the structure as drawn.

Consider `COc1cccc(C=Nn2c(Cc3c[nH]c4ccccc34)n[nH]c2=S)c1` [Compound 5b], for which the TRP in data set [1] is on record as 706.42 ± 0.004 µg AAE/mg. Also, the “Antibacterial activity, Bacillus subtilis: Activity” value (“Antibacterial activity” below) in data set [2] was “---”. Moreover, the “%DPPH inhibition (% free radical scavenging)” value in data set [3] was determined as 32%. The same compound showed an MIC in data set [4] of 12.5 µg/mL (≈ 34.4 µM). For the same compound, the “activity in the TAC assay (in words)” value in data set [5] is recorded as “maximum activity”.

For `O=[N+]([O-])c1ccc(C=Nn2c(Cc3c[nH]c4ccccc34)n[nH]c2=S)cc1` [Compound 5d], the “%DPPH inhibition (% free radical scavenging)” value in data set [3] was 11.1%. Moreover, the minimal inhibitory concentration (MIC) in data set [6] was 25 µg/mL (≈ 66.1 µM).

For the compound `Oc1cccc(C=Nn2c(Cc3c[nH]c4ccccc34)n[nH]c2=S)c1` [Compound 5a], the TRP in data set [1] stood at 592.26 ± 0.007 µg AAE/mg. Besides, the MIC in data set [4] is 12.5 µg/mL (≈ 35.8 µM).

In the case of `S=c1[nH]nc(Cc2c[nH]c3ccccc23)n1N=Cc1ccc(Cl)cc1` [Compound 5c], the “%DPPH inhibition (% free radical scavenging)” value in data set [3] was determined as 11.1%. Also, the MIC in data set [6] is 25 µg/mL (≈ 68 µM).

As to `S=c1[nH]nc(Cc2c[nH]c3ccccc23)n1N=Cc1cccc(Cl)c1` [Compound 5f], in data set [2], the “Antibacterial activity” value is “---”. Moreover, the MIC in data set [7] amounted to 25 µg/mL (≈ 68 µM).

In data set [1], `Oc1ccc(C=Nn2c(Cc3c[nH]c4ccccc34)n[nH]c2=S)cc1` [Compound 5e] gave a TRP of 619.18 ± 0.010 µg AAE/mg. Also, the “Antibacterial activity” value in data set [2] is on record as “---”. The “%DPPH inhibition (% free radical scavenging)” value in data set [3] was 8.3%. Moreover, the minimal inhibitory concentration (MIC) in data set [4] is 3.12 µg/mL (≈ 8.93 µM); in data set [6], 25 µg/mL (≈ 71.5 µM).

Compound `COc1cc(C=Nn2c(Cc3c[nH]c4ccccc34)n[nH]c2=S)cc(OC)c1OC` [Compound 5g] showed a TRP in data set [1] of 642.67 ± 0.001 µg AAE/mg. Further, in data set [2], the “Antibacterial activity” value is reported as “---”. In addition, the MIC in data set [7] was found to be 25 µg/mL (≈ 59 µM).
